Source: patent US11911349B2, “Rapidly improving vascular conditions by administering vitamin K” (NATTOPHARMA AS, priority 2018, dated 2024)

Tests used:
ApoE/LDLR−/− mice [1] = assay: Example 3: MRI assessment of FMD in femoral artery and Ach response in abdominal aorta, young mice; assay type: in vivo; settings: for improvement in endothelial function compared with low dose (0.05 mg/kg) for 4 weeks: four weeks
Method: In a first part of the study, the effects of low doses (0.05 mg/kg b.w./day) as well as higher doses (0.5 mg/kg b.w./day and 5 mg/kg b.w./day) of vitamin K2 (MK-7, referred to in this example as simply “vitamin K2,” unless noted otherwise) on endothelial function in ApoE/LDLR−/−mice without well-established atherosclerotic plaque and with early phase of endothelial dysfunction were assessed.
Mice were randomly assigned to one of four experimental groups: control (untreated group) and three groups treated with vitamin K2 at a dose of 0.05, 0.5, and 5 mg/kg b.w./day, respectively. End-point measurements were performed at the age of 10-16 weeks.
Magnetic resonance imaging (MRI) experiments were performed using a 9.4T scanner (BioSpec 94/20 USR, Bruker, Germany) located in the Department of Magnetic Resonance Imaging, Institute of Nuclear Physics, Polish Academy of Sciences in Krakow. During the experiment, mice were anaesthetized using isoflurane (Aerrane, Baxter Sp. z o. o., Poland, 1.7 vol %) in an oxygen and air (1:2) mixture and imaged in the supine position. Activity of the heart, respiration, and body temperature (maintained at 37° C. using circulating warm water) were monitored using a Monitoring and Gating System (SA Inc., Stony Brook, N.Y., USA).
Endothelial function was assessed based on vascular responses to acetylcholine (Ach) administration in brachiocephalic artery (BCA), left common carotid artery (LCA) (FIGS. 6 A and B) and abdominal aorta (AA) (FIG. 6C) as well as to responses to increase in flow (flow-mediated dilatation, FMD) in femoral artery (FA) (FIG. 6D) as described in Bar A, Skorka T, Jasinski K, Sternak M, Bartel Ż, Tyrankiewicz U, et al. Retrospectively-gated MRI for in vivo assessment of endothelium-dependent vasodilatation and endothelial permeability in murine models of endothelial dysfunction. NMR Biomed 2016; 29(8):1088; Sternak M, Bar A, Adamski M G, Mohaissen T, Marczyk B, Kieronska A, et al. The Deletion of Endothelial Sodium Channel α (αENaC) Impairs Endothelium-Dependent Vasodilation and Endothelial Barrier Integrity in Endotoxemia in Vivo. Front Pharmacol 2018; 9:178. doi:10.3389/fphar.2018.00178; and Bar A, Olkowicz M, Tyrankiewicz U, Kus E, Jasinski K, Smolenski R T, et al. Functional and Biochemical Endothelial Profiling In Vivo in a Murine Model of Endothelial Dysfunction; Comparison of Effects of 1-Methylnicotinamide and Angiotensin-converting Enzyme Inhibitor. Front Pharmacol 2017; 8:183. doi:10.3389/fphar.2017.00183).
Vasomotor response was examined by comparing two time-resolved 3D images of the vessels prior to and 25 minutes after intraperitoneal Ach administration (Sigma-Aldrich, Poznan Poland: 50 μl, 16.6 mg/kg), as well as prior to and 5 minutes after vessel occlusion. Images were acquired using the cine IntraGate™ FLASH 3D sequence, reconstructed with the IntraGate 1.2.b.2 macro (Bruker). End-diastolic volumes of vessels were analyzed using ImageJ software 1.46r (NIH Bethesda, Md., USA) and scripts written in Matlab (MathWorks, Natick, Mass., USA). Imaging parameters included the following: repetition time (TR)—6.4 ms, echo time (TE)—1.4 ms, field of view (FOV)—30×30×5 mm3, matrix size—256×256×30, flip angle (FA)—30°, and number of accumulations (NA)—15, reconstructed to 7 cardiac frames. Total scan time was 10 minutes.

[2] = test system: endothelial nitric oxide synthase (eNOS)-dependent nitric oxide (NO) production; assay: Example 3: endothelial NO production in ex vivo aorta by EPR spin-trapping; settings: 0.05 mg/kg b.w./day, vs untreated age-matched mice
Excerpt: For measurements of endothelial nitric oxide synthase (eNOS)-dependent nitric oxide (NO) production, EPR spin-trapping with diethyldithiocarbamic acid sodium salt (DETC) was used ex vivo, as described in Przyborowski K, Proniewski B, Czarny J, Smeda M, Sitek B, Zakrzewska A, et al. Vascular Nitric Oxide-Superoxide Balance and Thrombus Formation after Acute Exercise. Med Sci Sport Exerc 2018:1. doi:10.1249/MSS.0000000000001589, with minor modifications. Isolated aorta cleared from surrounding tissue was opened longitudinally and preincubated with 10 μM L-NIL (N6-(1-Iminoethyl)-lysine, hydrochloride) in Krebs-HEPES buffer for 30 minutes at 37° C. in a well of a 48-well plate. Next, 250 μL of Fe(DETC)2 colloid was added and aorta was stimulated with calcium ionophore A23187 (the final concentration was 1 μM) and subsequently, incubated for 90 minutes at 37° C. Finally, aorta was weighed and frozen in liquid nitrogen (suspended in fresh buffer) into the middle of a 400 μL column of Krebs-Hepes buffer and stored at −80° C. until measured. EPR spectra were obtained using an X-band EPR spectrometer (EMX Plus, Bruker, Germany), equipped with a rectangular resonator cavity H102. Signals were quantified by measuring the total amplitude of the NO—Fe(DETC)2 after correction of baseline. The quantitative results of NO production assessed by EPR were expressed in AU/mg of tissue.

ApoE/LDLR−/− mice [3] = assay: Example 3: nitrite and nitrate concentration in plasma, older mice; assay type: in vivo; settings: eight weeks
[4] = mouse, in vivo

CC(C)=CCC/C(C)=C/CC/C(C)=C/CC/C(C)=C/CC/C(C)=C/CC/C(C)=C/CC/C(C)=C/CC1=C(C)C(=O)c2ccccc2C1=O [MK-7, menaquinone-7]
Ach response in AA, volume changes (ApoE/LDLR−/− mice [1]; 0.05 mg/kg b.w./day, eight weeks, untreated −16.22%, p=0.05): −0.65% | magnitude of endothelium-dependent response to acetylcholine in abdominal aorta (ACH-AA) (ApoE/LDLR−/− mice [1]; 0.05 mg/kg b.w./day, two weeks): lack of changes | magnitude of vasodilatation in response to increase in flow in femoral artery (FMD-FA) (ApoE/LDLR−/− mice [1]; 0.05 mg/kg b.w./day, two weeks): lack of changes | improvement in endothelial function compared with low dose (0.05 mg/kg) for 4 weeks (ApoE/LDLR−/− mice [1]; 0.5 mg/kg b.w./day): not superior | improvement in endothelial function compared with low dose (0.05 mg/kg) for 4 weeks (ApoE/LDLR−/− mice [1]; 5 mg/kg b.w./day): not superior | Ach response in AA, volume changes (ApoE/LDLR−/− mice [1]; 5 mg/kg b.w./day, two weeks, untreated −7.72%, p=0.1): 0.16% | nitric oxide production in ex vivo aorta measured by EPR [2]: increased | concentration of NO3− in plasma (ApoE/LDLR−/− mice [3]; 0.03 mg/kg b.w./day): did not change significantly | concentration of NO3− in plasma (ApoE/LDLR−/− mice [3]; 10 mg/kg b.w./day): did not change significantly | increase in NO2− concentration in plasma (ApoE/LDLR−/− mice [3]; high dose 10 mg/kg b.w./day): ~42% | increase in NO2− concentration in plasma (ApoE/LDLR−/− mice [3]; low dose 0.03 mg/kg b.w./day): about 58% | K1 2,3-epoxide plasma concentration [4]: tent to decrease | vitamin K1 plasma concentration [4]: tent to decrease | concentration of MK4 2,3-epoxide in plasma ([4]; 5 mg/kg/day): maintained at similar level | plasma concentration of K2 (MK-7) ([4]; 5 mg/kg/day): dose-dependent increase | plasma concentration of MK-4 ([4]; 5 mg/kg/day): dose-dependent increase
